# Experimental data: US6716596B2, “Agents for replacement of NAD+/NADH system in enzymatic reactions” (The Regents of the University of California, priority 2001, dated 2004)
# Counter-ions that a name gives are not always drawn.
# Tests used:
# [1] = biological target: T1, horse liver alcohol dehydrogenase (HLADH) (Equus caballus, UniProt P00327); experiment: HLADH enzymatic chiral reduction of ketones with biomimic co-factor regeneration; assay type: biochemical; settings: for turnover frequency of chiral ketone reduction: ketone (12) reduced by HLADH with co-factor regeneration, 24 hours
# T1 construct: purchased Sigma
# T1 sequence (P00327 2-375 limits assumed): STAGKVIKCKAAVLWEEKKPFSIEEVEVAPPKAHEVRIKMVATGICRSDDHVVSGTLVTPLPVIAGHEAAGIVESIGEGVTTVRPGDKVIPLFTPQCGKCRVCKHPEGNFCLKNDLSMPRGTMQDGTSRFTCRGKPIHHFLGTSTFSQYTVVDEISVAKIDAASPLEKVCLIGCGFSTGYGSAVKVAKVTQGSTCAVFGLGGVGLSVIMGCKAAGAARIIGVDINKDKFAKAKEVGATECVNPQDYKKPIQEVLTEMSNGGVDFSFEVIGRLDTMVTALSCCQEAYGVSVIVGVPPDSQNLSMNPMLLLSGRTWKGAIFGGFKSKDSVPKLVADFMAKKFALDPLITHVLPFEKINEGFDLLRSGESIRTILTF
# Description: FIG. 7 presents structures of ketone substrates 12-15 used for biomimic chiral synthesis of corresponding alcohols. Conversion of the substrates 12-15 to their corresponding alcohols are expressed in % yield, and TOF in d^−1 and S-enantiomer excess (ee) are also shown for each conversion. Corresponding values obtained with NAD^+ are given in parenthesis. The S-enantiomeric excess (ee) was determined by GLC with a modified β-cyclodextrin capillary column.
# (§1) [Cp*Rh(bpy)(H2O)]OTf2 (1.9 mg, 2.61×10^−3 mmol), sodium formate (17.8 mg, 261.69×10^−3 mmol), NAD^+ (8.1 mg, 11.23×10^−3 mmol) and HLADH (10 units) were placed in a 10 mL Schlenk flask, and Schlenk techniques were followed to deoxygenate the solid mixture.
# (§2) Under positive argon pressure, 5 mL of potassium phosphate buffer (100 mM, pH=7.02, deoxygenated) and carbonyl substrate (83.58×10^−3 mmol, deoxygenated) were added via syringe. The reaction flask was immediately securely capped with a glass-stopper and shaken with a shaker in 30° C. water-bath. The reaction was monitored by gas chromatography (GC), equipped with a β-cyclodextrin column (Supelco, β-DEX-225), and the products were identified by comparing the retention time with the corresponding authentic chiral samples and were confirmed by GC-MS. The enantiomeric excess of the products was determined directly by their relative area in the chromatogram. The progress of the reaction was obtained by mixing the reaction aliquot with an internal standard (cyclohexanol in phosphate buffer), and then calibrating the measured relative area in the chromatogram with their corresponding response factors. The reaction was monitored for 24 hours.
# The same procedure as described in section A was followed, except that NAD^+ was substituted with any one of the biomimic compounds of the invention.
# [2] = regioselective reduction of biomimics with catalyst precursor (2) and sodium formate, followed by 1H NMR; settings: for turnover frequency (TOF) in the regioselective reduction: reduction to 1,4-dihydro derivative, NAD+ under the same conditions; for catalytic hydride transfer: reduction with (2) and HCO2Na, 1H NMR
# Description: The relative rates, seen tabulated in FIG. 1C, were determined by observing disappearance of the pyridinium signals versus an internal standard, [(CH3)4N]OTf (tetramethylammonium triflate), during the first 2 hours, where the relative rate of 1-benzylnicotinamide triflate (1) was set to 1.0. The turnover frequencies were calculated by the formation of mmol of product/mmol of catalyst/hour. The total turnover number in 24 hours was ˜95 for all substrates that gave product. The reactions were conducted in presilylated J. Young NMR tubes and were followed by ^1H NMR.
# The electronic effect of differently substituted nicotinamide substrates was determined by their relative rates. The relative rates of these compounds were determined by observing the disappearance of the pyridinium signals compared to interval standard, [(CH3)4N]OTf, during the first 2 hours, where the relative rate of compound (1a) was 1.0.
# In a typical reaction, a J. Young NMR tube was charged, biomimic substrates (1a)-(1i) (1.0 mol), 2 (1% mol), and HCO2Na (1.1 mol) used as the hydride source and a Schlenk techniques were conducted to deoxygenate the solid mixture. A diluted solvent was added to these solids for compounds (1a)-(1i), the solvent was D2O-THF-d8 (1=1 0.75 mL, deoxygenated), and the NMR tube was placed in a liquid nitrogen bath. The contents were further degassed by two successive freeze-pump-thaw cycles. After thawing out the reaction mixture, the J. Young NMR tube was immediately put in a salted ice-bath and covered with aluminum foil. The reaction was then followed by ^1H NMR spectroscopy at 26° C. temperature, after a speedy thawing out.
# The given relative rates and turnover frequencies were determined by decreasing integration of the corresponding pyridinium salts measured against an internal standard, (CH3)4N(OTf), during the first 2 h of the reaction. The ratios of the 1,4- and 1,6-dihydronicotinamide derivatives of compounds (1a), (1b) and (1d)-(1g) were obtained by comparison of the resonance signals with those of authentic samples, where the diagnostic signal is the resonance for —CH2Ph moiety which can be identified unambiguously in the ^1H NMR spectrum.
# [3] = biological target: T1, horse liver alcohol dehydrogenase (HLADH); experiment: biomimetic reduction of norcamphor (racemic); assay type: biochemical; settings: for exo/endo alcohols formed from norcamphor enantiomer: reaction with the biomimics of the invention
# Description: Biomimic yield expressed in equivalent was 86% corresponding to NAD^+ yield of 94% under the same conditions.
# as §1, §2
# The procedure described in section A is equally applicable to reduction of racemic compounds such as norcamphor, seen in FIG. 8. The method requires the following modification. Due to the sublimation of norcamphor in vacuo, the addition of norcamphor was conducted under positive argon pressure, followed by the addition of phosphate buffer via syringe.
# [4] = stability observations (light, air, solvent); assay type: physicochemical
# [5] = UV-vis kinetics of the regioselective reduction with rhodium catalyst precursor (2) and formate; settings: for TOF / ri initial rate: 294° K, H2O at pH 6.54, substrate 1.55 × 10^−3 M; for ri initial rate: average of two runs; for initial rate, times higher than compound (1) in THF/H2O (1:1): acqueous medium, comparable concentrations
# Excerpt: The kinetics of the regioselective reduction reactions were further studied utilizing UV-vis techniques with the two biomimic compounds (1) and (6) and the results were compared to NAD^+ itself. Experimental conditions are described in Example 9.
# The effect of the initial rate (ri) at low conversions to the 1,4-dihydro product (˜10%) was ascertained by varying the amount of substrate precatalyst (2) and sodium formate concentrations.
# The initial rates (ri) of formation of compound (3) were obtained from plots of concentration (absorbance at 354 nm/ε) versus time at low conversions (˜10%). The values of kcat were calculated at 299° K.
# Rates were obtained via UV-vis techniques and are an average of two runs.
# This example describes studies producing kinetic and thermodynamic data for 1-benzylnicotinamide triflate (1a) performed in THF/H2O, 1:1, β-nicotinamide -5′-ribose methyl phosphate (6) H2O, pH=6.5, and NAD^+ performed in the regioselective reduction with [Cp*Rh(bpy)H2O)][OTf]2, 2 and in the presence of formate ion.
# The kinetic experiments were carried out on a Hewlett Packard 8452A Diode Array Uv-Vis spectrophotometer, attached to a circulating water bath (VWR 1160). For experiments conducted at different temperatures, the circulating water bath, as well as the UV-vis instrument, were warmed up for at least an 1 hour before the kinic studies were initiated.
# The 1-benzylnicotinamide triflate (1a) [CP*Rh(bpy)(H2O)][OTf]2 (2) and 1-benzyl-1,4 dihydronicotinamide (3) were synthesized by methods as described in Examples 2, 4 and 7. The NAD^+ and 1,4-NADH compounds were purchased from Sigma and used as received. The THF was distilled from Na and deoxygenate with N2 gas for 1 hour. Distilled water was purchased from Aldrich Chemical Co and deoxygenate prior to being used. A solution of THF/H2O (similar for 1:1 or 1:4 ratios) was used for all the kinetic experiments performed for compounds of 1-benzylnicotinamide type, unless otherwise specified. A stock solution of biomimic (1a) (0.018 M), 2 (6.23×10^−3 M), and sodium formate (0.25 M) were made for the kinetic experiments in THF/H2O (1:1).
# A solution of 1-benzylnicotinamide triflate (1a), (4.29×10^−3 M) and sodium formate (0.0539) was made in a volumetric flask (10 mL) under N2 in a THF/H2O (1:1) mixture. The different concentration of biomimic (1a) and sodium formate used for the kinetic experiments are reported above.
# A 3.0 mL aliquot of this solution was transferred to a thermostated UV-vis cell by using an air-free syringe, which was also purged with N2 gas. The sample was then brought to the desired temperature for 30-60 min in the UV-vis spectrophotometer thermostated cell holder. Then, 23 μL of a 6.23×10^−3 M stock solution of [CP*Rh(bpy)(H2O)^2+ (2), was added-by syringe under a positive N2 pressure, quickly mixed with the solution, and the absorbance increase at 354 nm was immediately recorded. The experiment was carried out for 2 hours and the formation of the product, 1-benzyl-1,4-dihydronicotinamide, (3) was followed, with the change in absorbance being recorded every 90 seconds. Some kinetic experiments were carried out until all the starting material was converted to product. The induced volume change was taken into account for the calculation of the turnover frequency (TOF).
# The kinetic experiments for the β-nicotinamide-5′-ribose methyl phosphate (6) and natural NAD^+ were performed using the same general procedure described above. These kinetic experiments were carried out in H2O and the concentration of β-nicotinamide-5′-ribose methyl phosphate (6) or NAD^+, sodium formate, and [Cp*Rh(bpy)(H2O)]^2+ (2), were in the order of 1.50×10^−3, 0.0186 M, and 1.42×10^−5 M, respectively. The λmax for the β-nicotinamide-5′-ribose methyl phosphate, (6), and natural NAD^+ was 336 nm. In all the initial rate plots, time =0 s was removed from the plots of Concentration versus Time. The standard deviation of the ri were calculated from 2σ values.
# [6] = competitive regioselective substrate reduction experiments with rhodium catalyst precursor (2); settings: for competitive rate: reduced in the presence of compound (1a); for times faster than compound (1): competitive reduction with compound (1)
# Description: In order to establish whether the σ-donating ability or the electron-withdrawing effect of the 3-substituent of the 1-benzylnicotinamide was the important parameter, several competitive substrate reduction experiments were performed.
# For this purpose, the compound (1a) 1-benzylnicotinamide, was reduced with rhodium catalyst precursor (2) in the presence of its alternatively substituted derivatives, compounds (1e), substituted with —C(O)—CH3, (1g), substituted with (—CN), (1d), substituted with —C(S)NH2 or (1f), substituted with —C(O)OCH3, and their competitive reduction was determined.
molecule,measurement,setting,value
"CC(=O)c1ccccc1 [Compound 14, acetophenone]","enantiomeric excess of chiral alcohol from the ketone substrate, S-enantiomer",[1],> 96 % ee
same,yield of chiral product,[1],5%
"C[n+]1cccc(C(N)=O)c1 [1-methylnicotinamide, 1-Methylnicotinamide Triflate Salt]",relative rate ratio of 1-benzyl/1-methylnicotinamide,[2],2.0
same,relative rate of regioselective reduction,"[2]; disappearance of pyridinium signals vs [(CH3)4N]OTf during first 2 hours, compound (1a) set to 1.0",0.5
"O=C1CC2CC[C@H]1C2 (racemic) [Compound 17, norcamphor]",exo/endo alcohols formed from norcamphor enantiomer,[3],approximately equal mixture of exo and endo alcohols
COP(=O)(O)OC[C@H]1O[C@@H](N2C=CCC(C(N)=O)=C2)[C@H](O)[C@@H]1O,stability,[4],both light- and air-sensitive
"O=C1CC2CC[C@H]1C2 (racemic) [Compound 16, norcamphor]",exo/endo alcohols formed from norcamphor enantiomer,[3],exclusively the endo alcohol
"[Cp*Rh(η^2-(N,N)-2,2′-bipyridyl)(H2O)](OTf)2 [Compound 2]",stability,[4],stable as a solid in the air
"NC(=O)C1=CN([C@@H]2O[C@H](COP(=O)(O)OP(=O)(O)OC[C@H]3O[C@@H](n4cnc5c(N)ncnc54)[C@H](O)[C@@H]3O)[C@@H](O)[C@H]2O)C=CC1 [NAD^+, β-Nicotinamide adenine dinucleotide, reference compound]",turnover frequency (TOF) in the regioselective reduction,[2],18 h⁻¹
same,TOF,[5],9 h⁻¹
same,ri initial rate,[5],3.1e-08 M/s
same,"initial rate, times higher than compound (1) in THF/H2O (1:1)",[5],~3 times
same,turnover frequency of chiral ketone reduction,[1],~30 day⁻¹
same,yield of norcamphor reduction expressed in equivalent,"[3]; racemic norcamphor, same conditions for NAD^+",94%
"O=S(=O)([O-])C(F)(F)F.c1ccc(C[n+]2ccccc2)cc1 [Compound 1i, 1-Benzyl-pyridinium triflate]",catalytic hydride transfer,[2],not observed
"N#Cc1ccc[n+](Cc2ccccc2)c1.O=S(=O)([O-])C(F)(F)F [Compound 1g, 1-Benzyl-3-cyanopyridinium triflate]",competitive rate,[6],0.8
"COC(=O)c1ccc[n+](Cc2ccccc2)c1.O=S(=O)([O-])C(F)(F)F [Compound 1f, 1-Benzyl-3-carbomethoxypyridinium Triflate]",times faster than compound (1),[6],1.2 times
"CC(=O)Cc1ccccc1 [Compound 13, benzylmethylketone]","enantiomeric excess of chiral alcohol from the ketone substrate, S-enantiomer",[1],> 99 % ee
"COP(=O)([O-])OC[C@H]1O[C@@H]([n+]2cccc(C(N)=O)c2)[C@H](O)[C@@H]1O [Compound 6, β-nicotinamide ribose-5′-methyl phosphate]","TOF, times higher than those of compounds (1a)-(1i)",[2],approximately 2.5 times
same,"TOF, times higher than 1-benzylnicotinamide",[2]; in water vs 1-benzylnicotinamide in THF/water,about 2.5 times
same,turnover frequency (TOF) in the regioselective reduction,[2],20 h⁻¹
same,TOF,[5],7 h⁻¹
same,ri initial rate,[5],2.82e-08 M/s
same,"initial rate, times higher than compound (1) in THF/H2O (1:1)",[5],~3 times
same,recognition by HLADH as hydride catalyst of the chiral conversion,[1],recognizes
same,turnover frequency of chiral ketone reduction,[1],~30 day⁻¹
same,stability,[4],light-sensitive and somewhat air-sensitive
"CCN(CC)C(=O)c1ccc[n+](Cc2ccccc2)c1 [Compound 1c, 1-Benzyl-N,N-diethylnicotinamide, Triflate Salt]",catalytic hydride transfer,[2],not observed
"NC(=S)c1ccc[n+](Cc2ccccc2)c1 [Compound 1d, 1-Benzylthionicotinamide, Triflate Salt]",times faster than compound (1),[6],1.3 times
"Cc1ccc[n+](Cc2ccccc2)c1.O=S(=O)([O-])C(F)(F)F [Compound 1h, 1-Benzyl-3-methylpyridinium triflate]",catalytic hydride transfer,[2],not observed
"CC(=O)c1ccc[n+](Cc2ccccc2)c1.O=S(=O)([O-])C(F)(F)F [Compound 1e, 1-Benzyl-3-acetylpyridinium Triflate]",competitive rate,[6],0.9
"NC(=O)C1=CN(Cc2ccccc2)C=CC1 [Compound 3, 1-benzyl-1,4-dihydronicotinamide]",recognition by HLADH as hydride catalyst of the chiral conversion,[1],recognizes
